Results as given in US20250000826A1, “APPLICATION OF BENZANILIDE COMPOUND IN TUMOR TREATMENT” (NANJING SHIJIANG MEDICINE TECHNOLOGY CO., LTD, priority 2021, published 2025).

Experiments:
Format in all cases: cell-based
[1] = tested on: NCI-H82 (human small cell lung cancer cell); test: CellTiter-Glo cell viability, NCI-H82; details: NCI-H82, sensitive group, 3-4 days of culture, n=3, read-out: IC50 (μM), inhibitory effect on cell line
Experimental: (§1) Cell viability was detected using the Promega CellTiter-Glo kit, cell viability was determined by directly measuring intracellular ATP content. In the experiment, the IC50 value of niclosamide on various tumor cell lines was determined. Each tumor cell was cultured separately in relevant medium (+p/s), and was incubated for 3 h, then the gradient diluted niclosamide was added. After 3-4 days of culture, the relevant IC50 (50% inhibiting concentration) was measured (n=3). The name, source and culture conditions of each tumor cell line were as follows: Cell line NCI-H82 (ATCC, No. HTB-175) was cultured in 10% fetal bovine serum-containing RPMI1640 medium (+P/S).

[2] = tested on: G-401 (human renal carcinoma Wilms cell); test: CellTiter-Glo cell viability, G-401; details: G-401, sensitive group, 3-4 days of culture, n=3, read-out: IC50 (μM), inhibitory effect on cell line
Experimental: as §1, with “(+P/S). Cell line G401 (ATCC, No. CRL-1441) was cultured in 10% fetal bovine serum-containing McCoy's 5a medium (+P/S).” for “(+P/S).”

[3] = tested on: MDA-MB-453 (breast cancer cell); test: CellTiter-Glo cell viability, MDA-MB-453; details: Homo sapiens; MDA-MB-453, sensitive group, 3-4 days of culture, n=3; read-out: IC50 (μM), inhibitory effect on cell line
Experimental: as §1, with “(+P/S). Cell line MDA-MB-453 (ATCC, No. HTB-131) was cultured in 10% fetal bovine serum-containing Leibovitz's L-15 medium (+P/S).” for “(+P/S).”

[4] = tested on: SW48 (human colon adenocarcinoma cell); test: CellTiter-Glo cell viability, SW48; details: SW48, sensitive group, 3-4 days of culture, n=3, read-out: IC50 (μM), inhibitory effect on cell line
Experimental: as §1, with “(+P/S). Cell line SW48 (ATCC, No. CCL-231) was cultured in 10% fetal bovine serum-containing Leibovitz's L-15 medium (+P/S).” for “(+P/S).”

[5] = tested on: WSU-DLCL2 (human diffuse large B-cell lymphoma); test: CellTiter-Glo cell viability, WSU-DLCL2; details: WSUDLCL2, WSU-DLCL2, sensitive group, 3-4 days of culture, n=3, read-out: IC50 (μM), inhibitory effect on cell line
Experimental: as §1, with “(+P/S). Cell line WSU-DLCL2 (DSMZ, No. ACC-575) was cultured in 10% fetal bovine serum-containing RPMI1640 medium (+P/S).” for “(+P/S).”

[6] = tested on: CFPAC-1 (human pancreatic cancer cell); test: CellTiter-Glo cell viability, CFPAC-1; details: CFPAC-1, insensitive group, 3-4 days of culture, n=3, read-out: IC50 (μM), inhibitory effect on cell line
Experimental: as §1, with “(+P/S). Cell line CFPAC-1 (ATCC, No. CRL-1918) was cultured in 10% fetal bovine serum-containing IMDM medium (+P/S).” for “(+P/S).”

[7] = tested on: 786-0 (clear cell renal cell adenocarcinoma cell); test: CellTiter-Glo cell viability, 786-0; details: Homo sapiens; 786-0, insensitive group, 3-4 days of culture, n=3; read-out: IC50 (μM), inhibitory effect on cell line
Experimental: as §1, with “(+P/S). Cell line 786-0 (ATCC, No. CRL-1932) was cultured in 10% fetal bovine serum-containing RPMI1640 medium (+P/S).” for “(+P/S).”

[8] = tested on: GB-1 (human glioblastoma cell); test: CellTiter-Glo cell viability, GB-1; details: GB-1, insensitive group, 3-4 days of culture, n=3, read-out: IC50 (μM), inhibitory effect on cell line
Experimental: as §1, with “(+P/S). Cell line GB-1 (JCRB, No. IF050489) was cultured in 10% fetal bovine serum-containing […] DMEM medium (+P/S).” for “(+P/S).”

[9] = tested on: SF-126 (human glioblastoma multiforme cell); test: CellTiter-Glo cell viability, SF-126; details: SF-126, insensitive group, 3-4 days of culture, n=3, read-out: IC50 (μM), inhibitory effect on cell line
Experimental: as §1, with “(+P/S). Cell line SF126 (JCRB. No. 1F050286) was cultured in 10% fetal bovine serum-containing EMEM medium (+P/S).” for “(+P/S).”

NCI-H82 (Con) cell = test: CellTiter-Glo cell viability, control NCI-H82 cell; details: Homo sapiens; NCI-H82 transfected with empty virus vector, n=3
Experimental: (§2) The NNMT protein-overexpressing NCI-H82 cell (NCI-H82 (ov-NNMT)) was obtained by inserting the NNMT gene into NCI-H82 cell using a viral vector. The control NCI-H82 cell (NCI-H82 (Con)) was obtained by transfecting NCI-H82 cell with empty virus vector without carrying NNMT gene. The IC50 value of niclosamide on control NCI-H82 cell (NCI-H82 (Con)) and NNMT protein-overexpressing NCI-H82 cell (NCI-H82 (ov-NNMT)) was determined using Promega CellTiter-Glo kit which detected cell viability by directly measuring intracellular ATP content (n=3), the experiment result was shown in Table 4 below: […]

NCI-H82 (ov-NNMT) cell = test: CellTiter-Glo cell viability, NNMT protein-overexpressing NCI-H82 cell; details: Homo sapiens; NCI-H82 with NNMT gene inserted by viral vector, n=3
Experimental: as §2

IC50 [1]: 0.13 µM | IC50 [2]: 0.64 µM | IC50 [3]: 0.47 µM | IC50 [4]: 0.72 µM | IC50 [5]: 0.21 µM | IC50 [6]: > 50 µM | IC50 [7]: > 50 µM | IC50 [8]: 6.68 µM | IC50 [9]: 16.2 µM | IC50 (NCI-H82 (Con) cell): 120 nM | IC50 (NCI-H82 (ov-NNMT) cell): 420 nM
Compound: O=C(Nc1ccc([N+](=O)[O-])cc1Cl)c1cc(Cl)ccc1O [Niclosamide, niclosamide]
